Test results as given in article PMC8791944, “GLUT3 inhibitor discovery through in silico ligand screening and in vivo validation in eukaryotic expression systems” (Scientific Reports, 2022).
Values joined by “and” are separate entries in the source; they are usually repeats but may differ in a detail not shown here. Equal entries are not always repeated. “Also recorded” adds a separate entry of the source.

Biological target: T1, GLUT4 (Homo sapiens, UniProt P14672)
T1 construct: expressed in transfected cells; host or cells: Saccharomyces cerevisiae hxt0 strain SDY.022 (EBY.S7 Δerg4)
T1 sequence (P14672 1-509): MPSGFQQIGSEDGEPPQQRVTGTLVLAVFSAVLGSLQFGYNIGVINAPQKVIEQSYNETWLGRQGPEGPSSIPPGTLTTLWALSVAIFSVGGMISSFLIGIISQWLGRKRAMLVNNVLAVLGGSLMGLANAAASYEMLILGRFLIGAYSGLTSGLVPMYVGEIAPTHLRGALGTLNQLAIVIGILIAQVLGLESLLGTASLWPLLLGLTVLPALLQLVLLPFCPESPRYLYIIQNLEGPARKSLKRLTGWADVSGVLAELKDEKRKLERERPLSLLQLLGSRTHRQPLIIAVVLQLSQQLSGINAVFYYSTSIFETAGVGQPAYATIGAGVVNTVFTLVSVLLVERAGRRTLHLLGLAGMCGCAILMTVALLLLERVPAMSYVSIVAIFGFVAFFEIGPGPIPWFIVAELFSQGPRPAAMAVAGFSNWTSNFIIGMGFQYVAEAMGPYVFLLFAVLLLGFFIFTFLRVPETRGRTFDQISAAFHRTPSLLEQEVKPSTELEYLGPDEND
Assay: Glucose transport assay, GLUT4 expressed in hxt^0 yeast cells SDY.022
Assay type: cell-based
Details: for IC50: hxt^0 yeast cells, 5 mM glucose, read-out: IC50 for GLUT4 transport inhibition; for Potency for GLUT4 relative to GLUT3 (higher for GLUT4): IC50 GLUT4 versus IC50 GLUT3
From the text: The most studied GLUTs are Class 1 GLUTs (GLUT1-4) and a Class 2 GLUT, GLUT5 (a fructose-only transporter). GLUT3 sequence homology and identity is 79% and 64%, 71% and 52%, 74% and 57%, and 60% and 38% with GLUT1, GLUT2, GLUT4, and GLUT5, respectively. The hxt^0 yeast cell systems expressing functional GLUT1-4[65],[69] and GLUT5[66] allow us to determine the in vivo transport activity (substrate uptake by a GLUT into whole cells) for individual GLUTs and establish GLUT3 inhibitor selectivity for these transporters. The transport assay was performed as described for GLUT3, but at the substrate concentrations that correspond to the KM for each GLUT (i.e., 5 mM glucose for GLUT1 and GLUT4[65], 15 mM glucose for GLUT2∆loopS_Q455R[63], and 10 mM fructose for GLUT5S72Y[66]).
The transport activity was assayed as the substrate uptake in hexose transporter-deficient yeast cells expressing functional GLUT1[65], GLUT2[69], GLUT4[65], or GLUT5[66]. Substrate final concentration in the assay matched the corresponding substrate KM and was 5 mM glucose for GLUT1 and GLUT4, 15 mM glucose for GLUT2∆loopS_Q455R, and 10 mM fructose for GLUT5S72Y. Transport assay was initiated by the addition of C^14-labeled substrate and stopped after 10 min (see “Materials and methods” for details). […] Standard deviations for experimental points come from at least three independent measurements.
The plasmids containing functional constructs of GLUT1-5 were transformed in the corresponding hxt^0 strains[65],[66],[73] (EBY.VW4000 for GLUT5S72Y, EBY.S7 for GLUT1, GLUT2∆loopS_Q455R, GLUT3 and GLUT3S66Y, and SDY.022 for GLUT4) and grown on 2% (w/v) agar plates of the respective media supplemented with 1% (w/v) maltose. An initial culture of ~ 10 ml was started with a few colonies and grown for 2–3 days if the media was SC-uracil with 1% (w/v) maltose (GLUT1, GLUT3, GLUT4) or 1–2 days if the media was YEP with 1% (w/v) maltose and 100 µg/ml geneticin G418 (GLUT2∆loopS_Q455R and GLUT5S72Y). Cells were washed once in the corresponding media in which maltose was substituted with 0.1–2% hexose substrate for the expressing GLUT (i.e., SC-uracil, 2% (w/v) glucose for GLUT1; SC-uracil, 0.2% (w/v/) glucose for GLUT3 and GLUT4; YEP, 0.2% (w/v) glucose, 100 µg/ml geneticin G418 for GLUT2∆loopS_Q455R, and YEP, 2% (w/v) fructose for GLUT5 S72Y). Then, cells were transferred in the same media so that OD600nm ~ 0.5 and grown further for 1–2 days.
For transport activity assay, cells in the hexose media were centrifuged (1000×g, 5 min, room temperature), washed once with PBS buffer (10 mM Na2HPO4, 1.8 mM KH2PO4, 2.7 mM KCl, 137 mM NaCl, pH 7.4), and resuspended in PBS buffer at an OD600nm ~ 10; each assay contained 100 µl of this cell solution. Transport activity assay was started by adding C^14-hexose at a substrate concentration corresponding to the respective KM (5 mM glucose for GLUT1 or GLUT4, 3 mM glucose for GLUT3 or 1.5 mM glucose for GLUT3S66Y, 15 mM glucose for GLUT2∆loopS_Q455R, and 10 mM fructose for GLUT5S72Y); for determining the glucose KM in GLUT3 and GLUT3S66Y, substrate concentrations were varied accordingly. […] The filtration membranes were transferred into scintillation vials with 10 ml of Scintillation Solution (BioSafeII; Research Products International, Mount Prospect, IL, USA), and vortexed briefly. The radioactivity was determined with a scintillation counter (Tri-carb 2900TR, Perkin Elmer, USA).

Row | SMILES | IC50 [µM] | Ki (2.5, 5 and 10 mM glucose, 0, 4 and 8 µM G3iD, read-out: Ki for GLUT4 inhibition (Dixon plot)) | Inhibition mode in GLUT4 (Dixon plot, versus glucose) | Potency for GLUT4 relative to GLUT3 (higher for GLUT4)
1 | CC(=O)Nc1ccc(S(=O)(=O)Nc2ccc(Nc3cc(N(C)C)nc(C)n3)cc2)cc1 [G3iA, N-(4-{[(4-{[6-(dimethylamino)-2-methylpyrimidin-4-yl]amino}phenyl)amino]sulfonyl}phenyl)acetamide] | > 50 |  |  | 
2 | COc1ccccc1-n1c(/C=C/c2ccc(O)cc2)nc2ccc(Br)cc2c1=O [G3iB, 6-bromo-2-[(E)-2-(4-hydroxyphenyl)ethenyl]-3-(2-methoxyphenyl)quinazolin-4(3H)-one] | 12.7 ± 2.3 |  |  | 
3 | Cc1cccnc1OC1CCN(c2cc(N3CCCC3CO)ncn2)CC1 (stereo not shown) [G3iC] | 25.6 ± 6.6 |  |  | 
4 | Cc1cc(NC(=O)CCC2Cc3ccccc3NC2=O)nc(-c2ccccc2)n1 (stereo not shown) [G3iD] | 3.88 ± 0.57 | 2.65 µM and ~2.7 µM | competitive with glucose; also recorded: competitive inhibitor; also recorded: competitive inhibition mode | ~ fivefold
5 | O=C(Nc1cccc(Cl)c1)c1cccc(NC(=O)c2cccc([N+](=O)[O-])c2)c1 [G3iE, N-{3-[(3-chloroanilino)carbonyl]phenyl}-3-nitrobenzamide] | 12.4 ± 2.5 |  |  | 
6 | Cc1ccccc1CN(Cc1nnc(C(C)(C)C)o1)c1ccc2nc(O)[nH]c2c1 [G3iF] | 6.94 ± 1.37 |  |  | ~ fivefold
